In PMC10269878 (Microbiology Spectrum, 2023):

Legend:
in vivo = conditions: mouse, po, 100 mg/kg
melioidosis = conditions: in vivo; cited from earlier work
[1] = mouse, in vivo

In the case of C[C@H]1c2cccc(O)c2C(=O)C2=C(O)[C@]3(O)C(=O)C(C(N)=O)=C(O)[C@@H](N(C)C)[C@@H]3[C@@H](O)[C@@H]21 [Doxycycline, doxycycline monohydrate], the AUC(0-t) (in vivo) is reported as 12700 ng·h/mL, the Tmax (in vivo) is reported as 1.24 h and the half-life (in vivo) is reported as 2.56 h. For the same compound, the k el (in vivo) was 7.5e-05 s⁻¹, the “Efficacy alone to clear melioidosis” value (melioidosis) was “ineffective alone to clear melioidosis” and the “Doxycycline Absorption (ka)” value [1] was 1.68 h⁻¹.
